Each molecule was assayed against T1, Axl (Homo sapiens, UniProt P30530) (assay: Axl NanoBRET intracellular kinase assay (Cell Binding)). Conditions: HEK-293 cells transfected with Axl-NanoLuc fusion vector; displacement of K-5 NanoBRET tracer.
T1 sequence (P30530 26-894): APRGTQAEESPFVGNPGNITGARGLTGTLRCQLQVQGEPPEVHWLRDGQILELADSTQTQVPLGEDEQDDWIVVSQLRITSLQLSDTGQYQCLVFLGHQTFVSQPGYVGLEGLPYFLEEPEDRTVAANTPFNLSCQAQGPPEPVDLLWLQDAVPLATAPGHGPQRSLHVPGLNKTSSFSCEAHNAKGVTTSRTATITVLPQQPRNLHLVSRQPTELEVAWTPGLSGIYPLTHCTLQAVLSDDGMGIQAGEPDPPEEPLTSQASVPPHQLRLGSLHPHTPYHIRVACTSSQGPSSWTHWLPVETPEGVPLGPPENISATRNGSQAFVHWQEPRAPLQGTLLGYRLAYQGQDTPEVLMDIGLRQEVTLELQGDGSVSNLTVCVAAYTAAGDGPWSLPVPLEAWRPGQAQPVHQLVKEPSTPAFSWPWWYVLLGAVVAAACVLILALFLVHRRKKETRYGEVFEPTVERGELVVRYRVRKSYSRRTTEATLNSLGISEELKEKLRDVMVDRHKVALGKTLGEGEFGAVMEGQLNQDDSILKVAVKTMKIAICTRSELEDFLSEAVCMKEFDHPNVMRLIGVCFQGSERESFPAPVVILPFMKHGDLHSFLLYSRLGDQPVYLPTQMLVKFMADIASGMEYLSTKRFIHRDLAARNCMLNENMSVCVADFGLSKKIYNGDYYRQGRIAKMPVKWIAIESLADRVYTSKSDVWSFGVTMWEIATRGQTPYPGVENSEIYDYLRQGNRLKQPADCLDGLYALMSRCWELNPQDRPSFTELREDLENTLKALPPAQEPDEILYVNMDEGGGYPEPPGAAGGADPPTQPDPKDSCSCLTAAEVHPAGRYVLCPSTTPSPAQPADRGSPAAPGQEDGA
Parameters: host or cells: HEK-293
Summary of the method: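 HEK-293 cells transiently expressing Axl-NanoLuc fusion were pre-incubated with compound for 1 h at 37 °C (0.5% DMSO), then with 0.35 μM K-5 tracer for 2 h. Tracer displacement read as reduced BRET ratio (610/450 nm); IC50 from 4-parameter fit.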

Row | SMILES | IC50 [nM]
1 | CC1(C)COc2cc(-c3n[nH]c4ncc(-c5ccc6c(c5)CCC(N5CCCC5)CC6)cc34)ccc2C(=O)N1 (stereo not shown) [Example 35, 3,3-Dimethyl-8-{5-[7-(pyrrolidin-1-yl)-6,7,8,9-tetrahydro-5H-benzo[7]annulen-2-yl]-1H-pyrazolo[3,4-b]pyridin-3-yl}-2,3,4,5-tetrahydro-1,4-benzoxazepin-5-one] | < 100
2 | C[C@@H]1CCCN1C1CCc2ccc(-c3cnc4[nH]nc(-c5ccc6c(c5)OCC5(CC5)NC6=O)c4c3)cc2CC1 (stereo partly drawn) [Example 36, 8-(5-{7-[(2R)-2-Methylpyrrolidin-1-yl]-6,7,8,9-tetrahydro-5H-benzo[7]annulen-2-yl}-1H-pyrazolo[3,4-b]pyridin-3-yl)-4,5-dihydro-2H-spiro[1,4-benzoxazepine-3,1′-cyclopropan]-5-one] | < 100
3 | C[C@@H]1CCCN1C1CCc2ccc(-c3cnc4[nH]nc(-c5ccc6c(c5)OCC5(CCC5)NC6=O)c4c3)cc2CC1 (stereo partly drawn) [Example 37, 8-(5-{7-[(2R)-2-Methylpyrrolidin-1-yl]-6,7,8,9-tetrahydro-5H-benzo[7]annulen-2-yl}-1H-pyrazolo[3,4-b]pyridin-3-yl)-4,5-dihydro-2H-spiro[1,4-benzoxazepine-3,1′-cyclobutan]-5-one] | < 100
4 | Cc1cc2c(cc1-c1n[nH]c3ncc(-c4ccc5c(c4)CCC(N4CCC[C@H]4C)CC5)cc13)OCCNC2=O (stereo partly drawn) [Example 40, 7-Methyl-8-(5-{7-[(2R)-2-methylpyrrolidin-1-yl]-6,7,8,9-tetrahydro-5H-benzo[7]annulen-2-yl}-1H-pyrazolo[3,4-b]pyridin-3-yl)-2,3,4,5-tetrahydro-1,4-benzoxazepin-5-one] | < 100
5 | Cc1c(-c2n[nH]c3ncc(-c4ccc5c(c4)CCC(N4CCC[C@H]4C)CC5)cc23)ccc2c1OCCNC2=O (stereo partly drawn) [Example 41, 9-Methyl-8-(5-{7-[(2R)-2-methylpyrrolidin-1-yl]-6,7,8,9-tetrahydro-5H-benzo[7]annulen-2-yl}-1H-pyrazolo[3,4-b]pyridin-3-yl)-2,3,4,5-tetrahydro-1,4-benzoxazepin-5-one] | < 100
6 | C[C@H]1CCCN1C1CCc2ccc(-c3cnc4[nH]nc(-c5ccc6c(c5)OCCNC6=O)c4c3)cc2CC1 (stereo partly drawn) [Example 43, 8-(5-{7-[(2S)-2-Methylpyrrolidin-1-yl]-6,7,8,9-tetrahydro-5H-benzo[7]annulen-2-yl}-1H-pyrazolo[3,4-b]pyridin-3-yl)-2,3,4,5-tetrahydro-1,4-benzoxazepin-5-one] | < 100
7 | O=C1NCCOc2cc(-c3n[nH]c4ncc(-c5ccc6c(c5)CCC(N[C@@H]5CCOC5)CC6)cc34)ccc21 (stereo partly drawn) [Example 46, 8-[5-(7-{[(3R)—Oxolan-3-yl]amino}-6,7,8,9-tetrahydro-5H-benzo[7]annulen-2-yl)-1H-pyrazolo[3,4-b]pyridin-3-yl]-2,3,4,5-tetrahydro-1,4-benzoxazepin-5-one] | < 100
8 | O=C1NCCOc2cc(-c3n[nH]c4ncc(-c5ccc6c(c5)CCC(N5CCOCC5)CC6)cc34)ccc21 (stereo not shown) [Example 47, 8-{5-[7-(Morpholin-4-yl)-6,7,8,9-tetrahydro-5H-benzo[7]annulen-2-yl]-1H-pyrazolo[3,4-b]pyridin-3-yl}-2,3,4,5-tetrahydro-1,4-benzoxazepin-5-one] | < 100
9 | O=C1NCCOc2cc(-c3n[nH]c4ncc(-c5ccc6c(c5)CCC(N5CCNCC5)CC6)cc34)ccc21 (stereo not shown) [Example 48, 8-{5-[7-(Piperazin-1-yl)-6,7,8,9-tetrahydro-5H-benzo[7]annulen-2-yl]-1H-pyrazolo[3,4-b]pyridin-3-yl}-2,3,4,5-tetrahydro-1,4-benzoxazepin-5-one] | 100 to 1000
10 | O=C1NCCOc2cc(-c3n[nH]c4ncc(-c5ccc6c(c5)CCC(N5CCC[C@@H]5CO)CC6)cc34)ccc21 (stereo partly drawn) [Example 49, 8-(5-{7-[(2R)-2-(Hydroxymethyl)pyrrolidin-1-yl]-6,7,8,9-tetrahydro-5H-benzo[7]annulen-2-yl}-1H-pyrazolo[3,4-b]pyridin-3-yl)-2,3,4,5-tetrahydro-1,4-benzoxazepin-5-one] | < 100
11 | O=C1NCCOc2cc(-c3n[nH]c4ncc(-c5ccc6c(c5)CCC(N5CC[C@@H](O)C5)CC6)cc34)ccc21 (stereo partly drawn) [Example 51, 8-(5-(7-((R)-3-Hydroxypyrrolidin-1-yl)-6,7,8,9-tetrahydro-5H-benzo[7]annulen-2-yl)-1H-pyrazolo[3,4-b]pyridin-3-yl)-3,4-dihydrobenzo[f][1,4]oxazepin-5(2H)-one] | 100 to 1000

The next lines start with the values.

Row | IC50 [nM] | SMILES
12 | < 100 | C[C@@H]1CCCN1C1CCc2ccc(-c3cnc4[nH]nc(-c5ccc6c(c5)C(=O)NC6(C)C)c4c3)cc2CC1 (stereo partly drawn) [Example 38, 3,3-Dimethyl-6-(5-{7-[(2R)-2-methylpyrrolidin-1-yl]-6,7,8,9-tetrahydro-5H-benzo[7]annulen-2-yl}-1H-pyrazolo[3,4-b]pyridin-3-yl)-2,3-dihydro-1H-isoindol-1-one]
13 | < 100 | C[C@H]1CCCN1C1Cc2ccc(-c3cnc4[nH]nc(-c5ccc6c(c5)OCC(C)(C)NC6=O)c4c3)cc2C1 (stereo partly drawn) [Example 39, 3,3-Dimethyl-8-(5-{2-[(2S)-2-methylpyrrolidin-1-yl]-2,3-dihydro-1H-inden-5-yl}-1H-pyrazolo[3,4-b]pyridin-3-yl)-2,3,4,5-tetrahydro-1,4-benzoxazepin-5-one]
14 | < 100 | O=C1NCCOc2cc(-c3n[nH]c4ncc(-c5ccc6c(c5)CCC(NC5CCCC5)CC6)cc34)ccc21 (stereo not shown) [Example 42, 8-{5-[7-(Cyclopentylamino)-6,7,8,9-tetrahydro-5H-benzo[7]annulen-2-yl]-1H-pyrazolo[3,4-b]pyridin-3-yl}-2,3,4,5-tetrahydro-1,4-benzoxazepin-5-one]
15 | < 100 | C[C@@H]1CCCN1C1CCc2ccc(-c3cnc4[nH]nc(-c5ccc6c(c5)OCCNC6=O)c4c3)cc2CC1 (stereo partly drawn) [Example 44, 8-(5-{7-[(2R)-2-Methylpyrrolidin-1-yl]-6,7,8,9-tetrahydro-5H-benzo[7]annulen-2-yl}-1H-pyrazolo[3,4-b]pyridin-3-yl)-2,3,4,5-tetrahydro-1,4-benzoxazepin-5-one]
16 | < 100 | O=C1NCCOc2cc(-c3n[nH]c4ncc(-c5ccc6c(c5)CCC(N[C@H]5CCOC5)CC6)cc34)ccc21 (stereo partly drawn) [Example 45, 8-[5-(7-{[(3S)—Oxolan-3-yl]amino}-6,7,8,9-tetrahydro-5H-benzo[7]annulen-2-yl)-1H-pyrazolo[3,4-b]pyridin-3-yl]-2,3,4,5-tetrahydro-1,4-benzoxazepin-5-one]
17 | < 100 | O=C1NCCOc2cc(-c3n[nH]c4ncc(-c5ccc6c(c5)CCC(N5CCC[C@H]5CO)CC6)cc34)ccc21 (stereo partly drawn) [Example 50, 8-(5-{7-[(2S)-2-(Hydroxymethyl)pyrrolidin-1-yl]-6,7,8,9-tetrahydro-5H-benzo[7]annulen-2-yl}-1H-pyrazolo[3,4-b]pyridin-3-yl)-2,3,4,5-tetrahydro-1,4-benzoxazepin-5-one]
18 | < 100 | O=C1NCCOc2cc(-c3n[nH]c4ncc(-c5ccc6c(c5)CCC(N5CCC5)CC6)cc34)ccc21 (stereo not shown) [Example 52, 8-(5-(7-(Azetidin-1-yl)-6,7,8,9-tetrahydro-5H-benzo[7]annulen-2-yl)-1H-pyrazolo[3,4-b]pyridin-3-yl)-3,4-dihydrobenzo[f][1,4]oxazepin-5(2H)-one]
19 | 100 to 1000 | O=C1NCCOc2cc(-c3n[nH]c4ncc(-c5ccc6c(c5)CCNCC6)cc34)ccc21 [Example 53, 8-(5-(2,3,4,5-Tetrahydro-1H-benzo[d]azepin-7-yl)-1H-pyrazolo[3,4-b]pyridin-3-yl)-3,4-dihydrobenzo[f][1,4]oxazepin-5(2H)-one]
20 | 100 to 1000 | O=C1NCCOc2cc(-c3n[nH]c4ncc(-c5ccc6c(c5)CCNC6)cc34)ccc21 [Example 54, 8-(5-(1,2,3,4-Tetrahydroisoquinolin-6-yl)-1H-pyrazolo[3,4-b]pyridin-3-yl)-3,4-dihydrobenzo[f][1,4]oxazepin-5(2H)-one]
21 | 100 to 1000 | O=C1NCCOc2cc(-c3n[nH]c4ncc(-c5ccc6c(c5)CNCC6)cc34)ccc21 [Example 55, 8-(5-(1,2,3,4-Tetrahydroisoquinolin-7-yl)-1H-pyrazolo[3,4-b]pyridin-3-yl)-3,4-dihydrobenzo[f][1,4]oxazepin-5(2H)-one]
22 | < 100 | C[C@@H]1CCCN1C1CCc2cc(F)c(-c3cnc4[nH]nc(-c5ccc6c(c5)OCCNC6=O)c4c3)cc2CC1 (stereo partly drawn) [Example 58, 8-(5-{3-Fluoro-7-[(2R)-2-methylpyrrolidin-1-yl]-6,7,8,9-tetrahydro-5H-benzo[7]annulen-2-yl}-1H-pyrazolo[3,4-b]pyridin-3-yl)-2,3,4,5-tetrahydro-1,4-benzoxazepin-5-one]
